Experimental data published in PubChem BioAssay (NCI).
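All cell lines were grown in 96-well plates and treated with compound for 48 hours. Abbreviation: GI50, concentration required for 50% inhibition of growth. TGI is the concentration that stops growth completely.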

Assays:
Experiment in all cases: NCI tumour cell line growth inhibition, 48 h
[1] = tested on: EKVX NSCLC
[2] = tested on: IGROV1 ovarian
[3] = tested on: NCI-H23 lung
[4] = tested on: UO-31 renal
[5] = tested on: LOX IMVI melanoma
[6] = tested on: SK-MEL-2 melanoma
[7] = tested on: SK-MEL-5 melanoma
[8] = tested on: DU-145 prostate
[9] = tested on: MDA-MB-435
[10] = tested on: PC-3 prostate

| Compound | TGI [1] [µM] | TGI [2] [µM] | TGI [3] [µM] | TGI [4] [µM] | TGI [5] [µM] | TGI [6] [µM] | TGI [7] [µM] | GI50 [1] [µM] | GI50 [2] [µM] | GI50 [3] [µM] | GI50 [8] [µM] | TGI [8] [µM] | GI50 [4] [µM] | GI50 [5] [µM] | GI50 [9] [µM] | TGI [9] [µM] | GI50 [6] [µM] | GI50 [7] [µM] | GI50 [10] [µM] | TGI [10] [µM] |
| --- | --- | --- | --- | --- | --- | --- | --- | --- | --- | --- | --- | --- | --- | --- | --- | --- | --- | --- | --- | --- |
| CCN(CC)C(=S)SS(C)(=O)=O | 75.8 | > 100 | 35.4 | 37.3 | 26.5 | 33.2 | 49.4 | – | – | – | – | – | – | – | – | – | – | – | – | – |
| CC(=O)OCC1OC(n2c(=S)n(-c3ccccc3)c(=O)c3cc(Br)ccc32)C(OC(C)=O)C1OC(C)=O (stereo not drawn) | > 100 | > 100 | > 100 | > 100 | > 100 | > 100 | > 100 | – | – | – | – | – | – | – | – | – | – | – | – | – |
| Cc1cc(Br)ccc1N=Nc1c(C)nn(-c2ccccc2)c1-c1ccccc1 | > 100 | > 100 | > 100 | > 100 | > 100 | > 100 | > 100 | – | – | – | – | – | – | – | – | – | – | – | – | – |
| Cc1ccc(S(=O)(=O)NNS(C)(=O)=O)cc1 | > 100 | > 100 | > 100 | > 100 | > 100 | > 100 | > 100 | – | – | – | – | – | – | – | – | – | – | – | – | – |
| O=C1/C(=C/c2ccc(C(F)(F)F)cc2)COc2ccc(O)c(O)c21 | 2.99 | 1.84 | 3.21 | 1.95 | 1.48 | 3.99 | 3.21 | 1.61 | 0.476 | 1.61 | 1.6 | 3.19 | 0.633 | 0.377 | 1.26 | 2.68 | 1.83 | 1.73 | – | – |
| O=C1C(Cl)=C(NCCCN(CCCNC2=C(Cl)C(=O)c3ccccc3C2=O)C2=C(Cl)C(=O)c3ccccc3C2=O)C(=O)c2ccccc21 | 13.9 | 6.13 | 5.26 | 5.93 | – | – | 2.43 | 2.62 | 1.76 | 1.69 | 1.68 | 3.06 | 1.25 | – | 1.74 | 3.26 | – | 1.18 | 2.15 | 16.7 |
| COc1ccc2c(c1)-c1c(c3cc(OC)ccc3n(CCN(C)C)c1=O)C2=O | 10.2 | 2.31 | 8.82 | 1.23 | 1.85 | – | 8.92 | 1.37 | 0.243 | 1.59 | 0.565 | 3.54 | 0.127 | 0.658 | 0.95 | 5.73 | – | 2.6 | 1.49 | 8.88 |
| N#Cc1ccc(C2SCc3nc4ccccc4n32)cc1 (stereo not drawn) | > 100 | > 100 | > 100 | 73.6 | – | > 100 | > 100 | – | – | – | – | – | – | – | – | – | – | – | – | – |
| CN(C)c1ccc2[nH]c3c(C(N)=O)cc(=O)c(=O)c=3oc2c1 | 61.6 | 14.2 | 25.8 | – | > 100 | 5.34 | 3.55 | 3.36 | 1.95 | 1.1 | 4.6 | > 100 | – | 0.334 | – | – | 1.87 | 1.8 | 2.77 | > 100 |
| O=C(N/C(=C\c1ccc(/C=C(\NC(=O)c2ccccc2)c2nc3c(O)nc(S)nc3[nH]2)cc1)c1nc2c(O)nc(S)nc2[nH]1)c1ccccc1 | > 100 | > 100 | > 100 | > 100 | > 100 | > 100 | > 100 | – | – | – | – | – | – | – | – | – | – | – | – | – |
| O=C1Cc2cc(CCN3CCNCC3)c(Cl)cc2N1 | > 100 | – | > 100 | – | > 100 | > 100 | > 100 | 0.358 | – | 46.4 | 19.9 | > 100 | – | > 100 | 2.77 | 14.2 | 15.2 | 5.33 | 98.3 | > 100 |
| NC(=O)c1ncn(C2OC(CO)C(O)C2O)c1O (stereo not drawn) | > 100 | > 100 | – | > 100 | > 100 | > 100 | – | – | – | – | – | – | – | – | – | – | – | – | – | – |
| CCN(CC)c1c(C)nnn1C1OC(COC(C)=O)C(OC(C)=O)C(OC(C)=O)C1OC(C)=O (stereo not drawn) | > 100 | > 100 | > 100 | > 100 | – | – | > 100 | – | – | – | – | – | – | – | – | – | – | – | – | – |
| CCN1C(=O)N(CC)C2C1N=C(SC)N2/N=C/C=C/c1ccccc1OC (stereo not drawn) | > 56.6 | > 45.1 | > 38.8 | > 47.3 | > 36.7 | > 39.3 | 1.51 | 0.581 | 0.618 | 0.51 | 0.428 | > 45.3 | 0.821 | 0.564 | – | – | 1.2 | 0.365 | 0.47 | > 45.3 |
| CCCCOC(=O)NC(=O)c1cn(CCCOC(=O)CCCCCCCCC(=O)OCCCn2cc(C(=O)NC(=O)OCCCC)c(=O)n(C)c2=O)c(=O)n(C)c1=O | > 100 | > 100 | > 100 | > 100 | – | > 100 | > 100 | – | – | – | – | – | – | – | – | – | – | – | – | – |
| O=C(Oc1c(Cl)cc(Cl)cc1Cl)c1ccccc1Nc1ccnc(C(F)(F)F)c1 | 13 | > 100 | 6.3 | > 100 | 5.13 | > 100 | > 100 | 3.31 | > 100 | 2.59 | – | – | 41 | 1.99 | – | – | 31.1 | 3.07 | 15 | > 100 |
| COc1ccc2nc3ccccc3c(NCCCCN(CCCl)CCCl)c2c1 | – | 17.7 | 2.09 | 2.29 | – | 2.06 | 3.37 | – | – | – | – | – | – | – | – | 21.4 | – | – | – | 7.56 |
| Cc1cc(N(CCNc2ccnc3cc(Cl)ccc23)Cc2ccc3c(c2)OCO3)nc(N2CCCC2)n1 | 14.2 | 3.64 | 6.25 | 2.99 | 3.16 | 3.62 | 3.21 | 2.74 | 1.54 | 2 | – | – | 1.26 | 1.6 | 1.62 | 3.18 | 1.82 | 1.76 | 2.85 | 14 |
| Cc1c(-c2ccccn2)ccc2ccccc12 | > 100 | – | > 100 | 82.9 | > 100 | – | > 100 | – | – | – | – | > 100 | – | – | – | > 100 | – | – | – | > 100 |
| Cc1ccc(Nc2nc(-c3ccc(-c4ccc([N+](=O)[O-])cc4)o3)cs2)cc1 | – | > 100 | 94.5 | > 100 | > 100 | > 100 | – | – | – | – | – | – | – | – | – | – | – | – | – | – |
